Measured values published in PMC10201364 (MicrobiologyOpen, 2023).

Assays:
[1] = biological target: Ah‐BarR (S. acidocaldarius promoter P sa‐at, mKate2 reporter) (Acidianus hospitalis, UniProt F4B5V3); test: cell-based
Protocol: (§1) Reporter gene assays were performed as previously described (Bernauw et al., [2022]). pPRC6 and pITC variants (Table 1) were co‐transformed in E. coli MG1655 chemical competent cells using heat shock transformation. Transformant colonies of the Ah‐BarR biosensor strains were picked to inoculate wells of a transparent 96‐well plate (Greiner Bio‐One), each well filled with 200 µL of MOPS EZ Rich Defined medium (Teknova), prepared without the addition of the 5X EZ Supplement, after which the plate was incubated overnight in a ThermoMixer C (Eppendorf) at 30°C and 300 rpm. Next, a black 96‐well plate was filled with a naringenin solution prepared in ethanol (250 mg/L or 2.5 g/L), after which a Breathe‐Easy sealing membrane (Sigma‐Aldrich) was applied and the ethanol was evaporated in a ThermoMixer C (Eppendorf) at 75°C. […] Finally, the plate was sealed again using a Breathe‐Easy sealing membrane (Sigma‐Aldrich).
(§2) Plates were incubated at 30°C and 300 rpm for 40 h in a Synergy H1 microplate reader (BioTek) with measurements of OD600 and fluorescence (excitation wavelength: 588 nm, emission wavelength: 633 nm) being taken every 20 min. The gain was set to 140 for all measurements, except for the measurements with the amino acids (pools and separately), where the gain was set to 150. […] In addition, wells solely containing medium were measured as well to correct for the background signal.
(§3) Reporter expression was analyzed at t = 30 h, when all cultures had reached the stationary phase, by taking into account three subsequent time points (t–1, t, t+1). The corrected FL/OD600 value was calculated for each replicate (n = 4) as follows: FL/ODcor=FLt−1−FLmed,t−1/ODt−1−ODmed,t−1+FLt−FLmed,t/ODt−ODmed,t+FLt+1−FLmed,t+1/ODt+1−ODmed,t+1/3
(§4) Response curves were fitted to a Hill function of the shape P(M)=b+aM^n/θ^n+M^nforaβ−alanine−inducible responseb+aθ^n/θ^n+M^nforaβ−alanine−repressible response according to a previously published procedure (Landry et al., [2018]) with minor adaptations. […] Briefly, lmfit 1.1.0 was used to fit all replicates of a response curve to the appropriate Hill function using the Levenberg‐Marquardt algorithm (Moré, [1978]; Newville et al., [2016]). […] The dynamic range was estimated as μ=a/b .
Additional in vivo experiments were performed on strains BS3 and BS4 using the S. acidocaldarius promoters P sa‐barR and P sa‐at , respectively, in combination with Ah‐BarR.

[2] = biological target: Ah‐BarR (P ah‐barR promoter, mKate2 reporter) (Acidianus hospitalis, UniProt F4B5V3); test: cell-based
Protocol: as §1, §2, §3, §4

[3] = biological target: Ah‐BarR (P ah‐at aminotransferase promoter, mKate2 reporter) (Acidianus hospitalis, UniProt F4B5V3); test: cell-based
Protocol: as §1, §2, §3, §4

[4] = biological target: Ah‐BarR T134A (P ah‐barR promoter, mKate2 reporter) (Acidianus hospitalis, UniProt F4B5V3, T134A); test: cell-based
Protocol: as §1, §2, §3, §4

[5] = biological target: Ah‐BarR T136A (P ah‐barR promoter, mKate2 reporter) (Acidianus hospitalis, UniProt F4B5V3, T136A); test: cell-based
Protocol: as §1, §2, §3, §4

[6] = biological target: Ah‐BarR M103A (P ah‐barR promoter, mKate2 reporter) (Acidianus hospitalis, UniProt F4B5V3, M103A); test: cell-based
Protocol: as §1, §2, §3, §4

[7] = test system: 274‐bp DNA fragment harboring the entire barR‐aminotransferase intergenic region (WT promoter); test: EMSA of Ah‐BarR with WT promoter fragment; set-up: species or system Acidianus hospitalis; conditions: 5 mM β‐alanine added to binding reactions
Protocol: Electrophoretic mobility shift assays (EMSAs) were performed as described (Charlier & Bervoets, [2022]). Either the forward or the reverse primer was radioactively labeled, using fresh γ‐^32P‐ATP (Perkin Elmer) and T4 polynucleotide kinase (Thermo Scientific). Labeled promoter fragments were obtained by PCR using Taq DNA polymerase (Promega), a ^32P‐labeled primer, a non‐labeled second primer, and a plasmid template (Table A4). Labeled fragments were purified by acrylamide gel electrophoresis. EMSA reactions were prepared in protein‐DNA binding buffer (20 mM Tris‐HCl pH 8.0, 50 mM NaCl, 0.4 mM EDTA, 0.1 mM DTT, 1 mM MgCl2, 12.5% glycerol) with each reaction containing 1 µL (20 cps/µL) of ^32P‐labeled promoter fragment, an excess (25 µg/mL) of non‐labeled, nonspecific competitor DNA (sonicated salmon sperm DNA, Invitrogen), and purified Ah‐BarR protein. Amino acids were added to the reactions in the mentioned concentrations. […] Scans of the gels were analyzed by densitometry using ImageJ (Schneider et al., [2012]), after which GraphPad PRISM (version 9.3.1 for Windows, GraphPad Software, www.graphpad.com) was used to perform Hill curve fitting using nonlinear regression for saturated binding (one site, specific binding), and to determine apparent equilibrium dissociation constants K D.

[8] = biological target: Ah‐BarR M103N (P ah‐barR promoter, mKate2 reporter) (Acidianus hospitalis, UniProt F4B5V3, M103N); test: cell-based; assay type: cell-based
Protocol: as §1, §2, §3, §4

[9] = biological target: Ah‐BarR M103T (P ah‐barR promoter, mKate2 reporter) (Acidianus hospitalis, UniProt F4B5V3, M103T); test: cell-based; assay type: cell-based
Protocol: as §1, §2, §3, §4

[10] = BS4, β‐alanine 0–10 mM, 20 mg/L naringenin, Hill fit
[11] = BS1, β‐alanine 0–10 mM, 20 mg/L naringenin, t = 30 h, Hill fit
[12] = BS2, β‐alanine 0–10 mM, 20 mg/L naringenin, Hill fit
[13] = BS1 T134A, β‐alanine 0–10 mM, 20 mg/L naringenin, Hill fit
[14] = BS1 T136A, β‐alanine 0–10 mM, 20 mg/L naringenin, Hill fit
[15] = BS1 M103A, β‐alanine 0–10 mM, 20 mg/L naringenin, Hill fit
[16] = BS1 M103T, β‐alanine 0–10 mM, 20 mg/L naringenin, Hill fit

Ah‐BarR M103T (P ah‐barR promoter, mKate2 reporter), sequence (F4B5V3 entry or part of it M103T): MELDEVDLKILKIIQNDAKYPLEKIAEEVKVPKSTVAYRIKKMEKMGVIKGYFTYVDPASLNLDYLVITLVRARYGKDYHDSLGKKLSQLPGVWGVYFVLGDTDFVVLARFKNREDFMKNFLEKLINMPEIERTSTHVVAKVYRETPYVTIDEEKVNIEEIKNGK
Ah‐BarR M103A (P ah‐barR promoter, mKate2 reporter), sequence (F4B5V3 entry or part of it M103A): as the sequence (F4B5V3 entry or part of it M103T) above, with T103A counted along it
Ah‐BarR M103N (P ah‐barR promoter, mKate2 reporter), sequence (F4B5V3 entry or part of it M103N): as the sequence (F4B5V3 entry or part of it M103T) above, with T103N counted along it
Ah‐BarR T134A (P ah‐barR promoter, mKate2 reporter), sequence (F4B5V3 entry or part of it T134A): as the sequence (F4B5V3 entry or part of it M103T) above, with T103M, T134A counted along it
Ah‐BarR T136A (P ah‐barR promoter, mKate2 reporter), sequence (F4B5V3 entry or part of it T136A): as the sequence (F4B5V3 entry or part of it M103T) above, with T103M, T136A counted along it
Ah‐BarR (S. acidocaldarius promoter P sa‐at, mKate2 reporter), sequence (F4B5V3 1-165): as the sequence (F4B5V3 entry or part of it M103T) above, with T103M counted along it
Ah‐BarR (P ah‐at aminotransferase promoter, mKate2 reporter), sequence (F4B5V3 1-165): as the sequence (F4B5V3 entry or part of it M103T) above, with T103M counted along it
Ah‐BarR (P ah‐barR promoter, mKate2 reporter), sequence (F4B5V3 1-165): as the sequence (F4B5V3 entry or part of it M103T) above, with T103M counted along it

## NCCC(=O)O [β‐alanine]
[1]
  EC50: 90 µM
[1]; BS4, 20 mg/L naringenin
  Hill coefficient n: 2.99
[1]; BS4, µ = a/b
  Dynamic range µ: 5.15
[1]; [10]
  Basal fluorescence output b: 13,873 RFU
  Maximum fluorescence increase a: 71,426 RFU
[2]
  EC50: 370 µM
[2]; BS1, 20 mg/L naringenin
  Hill coefficient n: 1.77
[2]; BS1, µ = a/b
  Dynamic range µ: 3.07
[2]; [11]
  Basal fluorescence output b: 2226 RFU
  Maximum fluorescence increase a: 6828 RFU
[2]; BS1 and BS2 strains, 20 mg/L naringenin, individual amino acids of pools 1 and 7 at 3/5 mM
  ligand specificity: effect on transcriptional regulation of barR and at: specifically ascribed to β‐alanine
[3]
  EC50: 110 µM
[3]; BS2, 20 mg/L naringenin
  Hill coefficient n: 1.62
[3]; BS2, µ = a/b
  Dynamic range µ: 1.58
[3]; [12]
  Basal fluorescence output b: 313 RFU
  Maximum fluorescence increase a: 494 RFU
[4]
  EC50: 1610 µM
[4]; BS1 T134A, 20 mg/L naringenin
  Hill coefficient n: 1.68
[4]; BS1 T134A, µ = a/b
  Dynamic range µ: 4.06
[4]; [13]
  Basal fluorescence output b: 2145 RFU
  Maximum fluorescence increase a: 8703 RFU
[5]
  EC50: 960 µM
[5]; BS1 T136A, 20 mg/L naringenin
  Hill coefficient n: 1.36
[5]; BS1 T136A, µ = a/b
  Dynamic range µ: 3.31
[5]; [14]
  Basal fluorescence output b: 2469 RFU
  Maximum fluorescence increase a: 8171 RFU
[6]
  EC50: 1350 µM
[6]; BS1 M103A, 20 mg/L naringenin
  Hill coefficient n: 1.88
[6]; BS1 M103A, µ = a/b
  Dynamic range µ: 3.25
[6]; [15]
  Basal fluorescence output b: 2289 RFU
  Maximum fluorescence increase a: 7429 RFU
[7]
  effect of β‐alanine on formation of Ah‐BarR‐DNA complexes: did not significantly alter
[8]
  Basal fluorescence output b: 2281 RFU
  Dynamic range µ: 4.11
  EC50: 460 µM
  Hill coefficient n: 1.48
  Maximum fluorescence increase a: 9373 RFU
[9]
  EC50: 320 µM
[9]; BS1 M103T, 20 mg/L naringenin
  Hill coefficient n: 1.36
[9]; BS1 M103T, µ = a/b
  Dynamic range µ: 2.49
[9]; [16]
  Basal fluorescence output b: 3184 RFU
  Maximum fluorescence increase a: 7915 RFU
